Among the test systems are 786-0; BT-549; CAKI-1; HL-60; HT-29; K562; KM12; LOX IMVI; MDA-MB-231; MDA-MB-435; Malme-3M; NCI/ADR-RES; SF-268; SK-MEL-2; SK-MEL-5; SR; M14; MOLT-4; OVCAR-3; SF-295.
Experiment in all cases: DTP human tumour cell line panel, 48 h

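Step 1: Grow cells in 96-well plates. Step 2: Expose to compound for 48 hours at 5 concentrations. Step 3: Interpolate endpoints linearly; if unreached, use highest concentration. GI50 = concentration required for 50% inhibition of growth.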 Calls of active or inactive are those of the source. Cut-off read from the data, not from the text of the source: active = GI50 up to about 1.1 µM and inactive = higher.

Take `O=C(NCCCN(CCCCN(CCCNC(=O)c1cc(S(=O)(=O)O)cc(O)c1O)C(=O)c1cc(S(=O)(=O)O)cc(O)c1O)C(=O)c1cc(S(=O)(=O)O)cc(O)c1O)c1cc(S(=O)(=O)O)cc(O)c1O`: the GI50 – broadly, the concentration giving 50% growth inhibition – was > 100 µM (inactive) in the experiment with 786-0; > 100 µM (inactive) in the experiment with BT-549; > 100 µM (inactive) with CAKI-1; 66.1 µM (inactive) in the experiment on HL-60; > 100 µM (inactive) in the experiment on HT-29; > 100 µM (inactive) with K562. In addition, the GI50 is > 100 µM (inactive) in the experiment on KM12; 98.4 µM (inactive) in the experiment on LOX IMVI; > 100 µM (inactive) with MDA-MB-231; > 100 µM (inactive) in the experiment on MDA-MB-435; > 100 µM (inactive) in the experiment on Malme-3M; > 100 µM (inactive) in the experiment with NCI/ADR-RES. Besides, the GI50 was > 100 µM (inactive) in the experiment with SF-268, > 100 µM (inactive) in the experiment with SK-MEL-2, > 100 µM (inactive) with SK-MEL-5 and 60.4 µM (inactive) in the experiment on SR.

For `CCCc1cn2c(/C=N/NC(=N)N)c(-c3ccc([N+](=O)[O-])cc3)nc2s1`, the GI50 was 0.853 µM (active) with 786-0; 1.92 µM (inactive) with BT-549; 1.69 µM (inactive) in the experiment on CAKI-1; 0.45 µM (active) with HL-60; 0.275 µM (active) in the experiment with HT-29; 0.286 µM (active) with K562. The GI50 was 1.52 µM (inactive) in the experiment with KM12; 1.39 µM (inactive) in the experiment with LOX IMVI; 1.93 µM (inactive) with M14; 1.69 µM (inactive) in the experiment on MDA-MB-231; 1.63 µM (inactive) with MDA-MB-435; 0.231 µM (active) in the experiment with MOLT-4. For the same molecule, the GI50 with Malme-3M was 2.5 µM (inactive); with NCI/ADR-RES, 1.89 µM (inactive); in the experiment with OVCAR-3, 0.548 µM (active); in the experiment on SF-268 it was 2.16 µM (inactive); with SF-295, 0.912 µM (active); with SK-MEL-2, 2.13 µM (inactive). Moreover, the figures for the GI50 in the experiment on SK-MEL-5 and with SR were 5.81 µM (inactive) and 0.245 µM (active), respectively.

Consider `CC(=O)C(CN1CCOCC1)C(c1ccccc1)c1c(O)c2ccccc2oc1=O` (stereo not given), for which the GI50 in the experiment on 786-0 is > 100 µM (inactive); in the experiment with BT-549, > 100 µM (inactive); in the experiment with CAKI-1, > 100 µM (inactive); with HL-60, 41.3 µM (inactive); with HT-29 it was > 100 µM (inactive); in the experiment with K562 it was > 100 µM (inactive). The GI50 with KM12 was > 100 µM (inactive); in the experiment on LOX IMVI, > 100 µM (inactive); in the experiment on M14, > 100 µM (inactive); with MDA-MB-231, 83.9 µM (inactive); in the experiment with MDA-MB-435 it was > 100 µM (inactive); in the experiment on MOLT-4, > 100 µM (inactive). In addition, the GI50 in the experiment on Malme-3M is 80.9 µM (inactive); in the experiment on NCI/ADR-RES it was > 100 µM (inactive); in the experiment with OVCAR-3, > 100 µM (inactive); with SF-268 it was > 100 µM (inactive); with SF-295, > 100 µM (inactive); in the experiment on SK-MEL-2 it was > 100 µM (inactive). Further, the GI50 in the experiment with SK-MEL-5 was > 100 µM (inactive); in the experiment with SR, 64.7 µM (inactive).

Consider `Cc1cc(C)c2c(c1)CC1(Cc3cc(C)c(C)cc3C1=O)C2=O` (stereo not given), for which the GI50 is 71.9 µM (inactive) in the experiment on 786-0; > 100 µM (inactive) in the experiment on BT-549; > 100 µM (inactive) in the experiment with CAKI-1; 7.1 µM (inactive) with HL-60; > 100 µM (inactive) in the experiment with K562; > 100 µM (inactive) in the experiment with KM12. Moreover, the GI50 was > 100 µM (inactive) in the experiment with LOX IMVI; 27.7 µM (inactive) with M14; > 100 µM (inactive) in the experiment with MDA-MB-231; 3.82 µM (inactive) in the experiment on MDA-MB-435; > 100 µM (inactive) with MOLT-4; 4.75 µM (inactive) in the experiment on Malme-3M. Also, the GI50 with NCI/ADR-RES, with OVCAR-3, in the experiment on SF-268, in the experiment on SF-295, with SK-MEL-2 and with SK-MEL-5 was > 100 µM (inactive) in each case. For the same molecule, the GI50 with SR was 14.7 µM (inactive).

For the molecule `CC(C)[C@@H](C)[C@@]1(C)C[C@@H]1[C@@H](C)[C@H]1CC[C@@H]([C@@H]2CC=C3C[C@@H](O)CC[C@]3(C)C2=O)[C@]1(C)CCO`, the GI50 in the experiment with 786-0 was 5.53 µM (inactive); in the experiment on BT-549, 16.6 µM (inactive); in the experiment with CAKI-1 it was 12.8 µM (inactive); in the experiment on HL-60 it was 2.11 µM (inactive); with HT-29, 2.58 µM (inactive); in the experiment on K562 it was 3.49 µM (inactive). The GI50 in the experiment with KM12 was 2.82 µM (inactive); in the experiment with LOX IMVI, 4.57 µM (inactive); with MDA-MB-231 it was 14.8 µM (inactive); in the experiment on MDA-MB-435 it was 11.9 µM (inactive); with MOLT-4, 4.17 µM (inactive); in the experiment with Malme-3M, 14 µM (inactive). Besides, the GI50 in the experiment on NCI/ADR-RES was 13.4 µM (inactive); in the experiment on OVCAR-3, 12.8 µM (inactive); with SF-268, 15.5 µM (inactive); in the experiment with SF-295, 9.2 µM (inactive); with SK-MEL-2, 18.3 µM (inactive); in the experiment on SK-MEL-5 it was 13.1 µM (inactive). Besides, the GI50 in the experiment with SR is 2.69 µM (inactive).

With `Nc1ncc(Cl)c(NCC2(CO)CC(CCc3ccccc3)C2)n1` (stereo not given), the GI50 in the experiment on 786-0 is > 100 µM (inactive); in the experiment on BT-549, > 100 µM (inactive); in the experiment on CAKI-1, 12 µM (inactive); in the experiment on HL-60, 1.13 µM (inactive); with K562 it was 0.321 µM (active); with KM12 it was > 100 µM (inactive). For the same molecule, the 50% growth inhibitory concentration (GI50) is 0.785 µM (active) in the experiment with LOX IMVI; > 100 µM (inactive) in the experiment with M14; > 100 µM (inactive) in the experiment on MDA-MB-231; > 100 µM (inactive) in the experiment on MDA-MB-435; 1.82 µM (inactive) in the experiment on MOLT-4; > 100 µM (inactive) with Malme-3M. Also, the GI50 was 3.61 µM (inactive) with NCI/ADR-RES; > 100 µM (inactive) with OVCAR-3; > 100 µM (inactive) in the experiment on SF-268; 5.2 µM (inactive) in the experiment with SF-295; > 100 µM (inactive) in the experiment on SK-MEL-2; 0.38 µM (active) in the experiment with SK-MEL-5. The GI50 with SR is 2.38 µM (inactive).

For `C/C(=N\NC(N)=S)c1sc(-n2nc(-c3ccccc3)cc2-c2ccccc2)nc1C`, the GI50 with 786-0 is > 100 µM (inactive); with BT-549, > 100 µM (inactive); in the experiment with CAKI-1 it was > 100 µM (inactive); in the experiment on HL-60 it was 54.6 µM (inactive); in the experiment with HT-29, 37.5 µM (inactive); in the experiment with KM12, > 100 µM (inactive). In addition, the GI50 with LOX IMVI is 71.9 µM (inactive); with M14, > 100 µM (inactive); with MDA-MB-231, 43.3 µM (inactive); with MDA-MB-435, > 100 µM (inactive); with MOLT-4, 27.9 µM (inactive); with Malme-3M, > 100 µM (inactive). The GI50 with NCI/ADR-RES is 67.1 µM (inactive); with OVCAR-3, 98.2 µM (inactive); in the experiment with SF-268 it was > 100 µM (inactive); with SF-295 it was > 100 µM (inactive); with SK-MEL-2, > 100 µM (inactive); in the experiment on SK-MEL-5 it was 76.4 µM (inactive). Besides, the GI50 in the experiment on SR is 67.3 µM (inactive).

Take `COC[C@H]1C(=O)NCC(=O)N2N=CCC[C@H]2C(=O)N(O)[C@H](C)C(=O)O[C@@H](C(C)C)[C@H](NC(=O)[C@@](C)(O)[C@]2(O)CC[C@@H](CC(C)C)[C@H](C)O2)C(=O)N2NCCC[C@@H]2C(=O)N1O`: the concentration for 50% growth inhibition (GI50) is 0.0174 µM (active) in the experiment on 786-0; 0.0166 µM (active) in the experiment on BT-549; 0.133 µM (active) with CAKI-1; 0.0148 µM (active) in the experiment on HL-60; 0.0172 µM (active) with HT-29; 0.02 µM (active) with K562. Further, the 50% growth inhibitory concentration (GI50) with KM12 was 0.0134 µM (active); in the experiment on LOX IMVI, 0.0178 µM (active); in the experiment on M14 it was 0.0183 µM (active); with MDA-MB-231, 0.0191 µM (active); with MDA-MB-435, 0.0164 µM (active); with MOLT-4, 0.0164 µM (active). Moreover, the GI50 with Malme-3M was 0.0171 µM (active); in the experiment with NCI/ADR-RES, 0.316 µM (active); with OVCAR-3, 0.0183 µM (active); in the experiment on SF-268, 0.0163 µM (active); in the experiment with SF-295 it was 0.0193 µM (active); with SK-MEL-2, 0.0164 µM (active). The 50% growth inhibitory concentration (GI50) in the experiment with SK-MEL-5 was 0.0156 µM (active); in the experiment on SR, 0.014 µM (active).

With `c1csc(-c2ccc(-c3ccc(-c4cccs4)s3)s2)c1`, the GI50 in the experiment with 786-0, in the experiment on BT-549, in the experiment with CAKI-1, in the experiment on HL-60, in the experiment with HT-29 and in the experiment with KM12 was > 100 µM (inactive) each time. Moreover, the GI50 in the experiment on LOX IMVI, in the experiment on M14, with MDA-MB-231, with MDA-MB-435, with MOLT-4 and with Malme-3M was > 100 µM (inactive) each time. Moreover, the GI50 in the experiment on NCI/ADR-RES, in the experiment on OVCAR-3, with SF-268, in the experiment with SF-295, with SK-MEL-2 and in the experiment with SK-MEL-5 was > 100 µM (inactive) throughout. The GI50 in the experiment on SR was > 100 µM (inactive).

On to `CCCCCCNc1n[nH]c(=O)c2c1nnn2Cc1ccccc1`, for which the GI50 with 786-0, in the experiment with BT-549, with CAKI-1, with HL-60, in the experiment on HT-29 and in the experiment on K562 was > 100 µM (inactive) each time. Further, the GI50 in the experiment on KM12, with LOX IMVI, in the experiment on M14, in the experiment on MDA-MB-231, in the experiment with MDA-MB-435 and in the experiment with MOLT-4 was > 100 µM (inactive) in each case. Moreover, the GI50 with Malme-3M, in the experiment on NCI/ADR-RES, in the experiment on OVCAR-3, with SF-295, in the experiment on SK-MEL-2 and with SK-MEL-5 was > 100 µM (inactive) in each case. Also, in the experiment with SR, the GI50 is > 100 µM (inactive).
